The values that follow come from patent US8557804B2, “Nicotinic receptor agonists for the treatment of inflammatory diseases” (priority 2002, dated 2013).

One assay relates to blood eosinophils. Kind of assay: Blood eosinophil transmigration through an artificial basement membrane (Matrigel coated chemotaxis chamber). The assay is classed as cell-based. As to conditions: purified blood eosinophils, Matrigel. An excerpt: Infiltration of eosinophils and other inflammatory cells into lung tissues is an important feature of asthma and the cause of airway inflammation and hyper-responsiveness. The passage of inflammatory cells from the circulation to the lung involves migration through the vascular endothelium, the basement membrane, and extra-cellular matrix components. Inflammatory cells cross the basement membrane by producing proteinases. In these preliminary in vitro experiments, the effects of various nicotinic agonists on the migration of purified blood eosinophils through an artificial basement membrane (Matrigel® coated chemotaxis chamber) were investigated. […] Results are expressed as a percentage of inhibition (agonists-treated cells) compared to the control condition without the agonists.

For assay [1], the system named is mouse tracheal airway smooth muscle. The experiment in a line: Isometric study on isolated mouse tracheas pre-contracted with metacholine. The following applies: cumulative doses, metacholine 10^−5. How it is done:
Tracheal rings were mounted isometrically to force transducers in organ baths containing Krebs bicarbonate solution at 37° C. and bubbled with 95% O2-5% CO2, pre-contracted with submaximal concentration of metacholine (10^−5) and cumulative doses of the analogs were added to the baths. Changes of tension are recorded. Results are expressed as a percentage of maximal contraction (FIG. 29).
As described previously, tracheal or bronchial rings were mounted isometrically to force transducers in organ baths containing Krebs bicarbonate solution at 37° C. and bubbled with 95% O2-5% CO2, pre-contracted with submaximal concentration of metacholine cumulative doses of ASM-002 added. Changes of tension are recorded. Results are expressed as a percentage of maximal contraction for mouse (FIG. 34, p=0.002), dog (FIG. 35, p=0.004) and human (FIG. 36)

The structures appear in SMILES notation.

`C[N+]1(C)CCN(c2ccccc2)CC1` [DMPP, Dimethylphenylpiperazinium]: the “inhibition of eosinophil transmigration” value with blood eosinophils was “dose-related inhibition”. The “relaxation of tracheal smooth muscles pre-contracted with metacholine” value in assay [1] is given as “dose dependant relaxation”.
